From patent US8758825B2, “Sequestered antagonist formulations” (Purdue Pharma L.P., priority 2001, dated 2014)

How the values were obtained:
[1] = in comparison to a 15 mg dose of hydrocodone
Excerpt: In certain preferred embodiments, the opioid agonist is oxycodone or hydrocodone.

[2] = cited from earlier work; for Duration of action: after oral doses

SMILES | Equianalgesic dose, Calculated Dose [1] | further results
COc1ccc2c3c1O[C@H]1[C@@H](O)C=C[C@H]4[C@@H](C2)N(C)CC[C@@]341 [Codeine] | 90.0 mg | 
COc1ccc2c3c1O[C@H]1C(=O)CC[C@@]4(O)[C@@H](C2)N(C)CC[C@]314 [Oxycodone, 4,5-expoxy-14-hydroxy-3-methoxy-17-methylmorphinan-6-one] | 13.5 mg | 
COc1ccc2c3c1OC1C(=O)CC[C@H]4[C@@H](C2)N(C)CC[C@]314 (stereo partly shown) [Hydrocodone, 4,5-epoxy-3-methoxy-17-methylmorphinan-6-one] | 15.0 mg | 
CCC(=O)C(CC(C)N(C)C)(c1ccccc1)c1ccccc1 (stereo not shown) [Methadone] | 9.0 mg | 
C[C@H]1[C@H]2Cc3ccc(O)cc3[C@]1(C)CCN2CC1CC1 [cyclazocine] |  | Duration of action [2]: ~24 h
O=C1CC[C@@]2(O)[C@H]3Cc4ccc(O)c5c4[C@@]2(CCN3CC2CC2)[C@H]1O5 [naltrexone] |  | Duration of action [2]: ~24 h; Protein binding ([2]; in vivo): approximately 21%; Oral bioavailability ([2]; oral administration): 5-40%; Time of absorption ([2]; oral administration): ≤ 1 h
CN1CC[C@]23CCCC[C@H]2[C@H]1Cc1ccc(O)cc13 [Levorphanol] | 1.8 mg | 
